# Data: article PMC3578011 (Journal of neurochemistry, 2013)
# “Also recorded” adds a separate entry of the source.
# Tests used:
# CB1 [1] = biological target: T1, CB1 (Homo sapiens, UniProt P21554); assay: Radioligand binding assay, cooperativity with [3H]SR141716A; settings: for effect on [3H]SR141716A binding: in the concentration range tested
# [2] = Solubility in organic solvents; assay type: physicochemical; settings: except tetrahydrofuran (THF)
# CB1 [3] = biological target: T1, CB1; assay: Radioligand binding assay, cooperativity with [3H]CP55,940; settings: for cooperativity factor (α): from [3H]CP55,940 binding curves, membranes of HEK293 cells expressing CB1
# CB1 wild-type receptor = CB1 wild-type receptor (Homo sapiens, UniProt P21554); assay: [35S]GTPγS binding assay; assay type: biochemical
# CB1 wild-type receptor, sequence (P21554 whole entry): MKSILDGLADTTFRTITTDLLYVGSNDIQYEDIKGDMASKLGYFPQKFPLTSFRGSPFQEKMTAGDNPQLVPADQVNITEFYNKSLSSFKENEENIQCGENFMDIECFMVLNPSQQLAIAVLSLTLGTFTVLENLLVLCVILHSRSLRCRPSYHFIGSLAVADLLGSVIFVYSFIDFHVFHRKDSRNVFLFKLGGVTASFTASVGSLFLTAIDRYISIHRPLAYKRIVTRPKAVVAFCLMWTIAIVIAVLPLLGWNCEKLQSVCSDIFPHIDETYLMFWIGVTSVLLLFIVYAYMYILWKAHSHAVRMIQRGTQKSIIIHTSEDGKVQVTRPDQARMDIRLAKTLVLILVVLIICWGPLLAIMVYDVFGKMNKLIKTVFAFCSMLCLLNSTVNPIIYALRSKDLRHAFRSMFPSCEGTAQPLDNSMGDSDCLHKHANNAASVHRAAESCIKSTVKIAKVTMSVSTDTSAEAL
# CB1 [4] = biological target: T1, CB1; settings: for time of maximal ERK1/2 phosphorylation: 0.5 µM CP55,940 or 3.2 µM ICAM-b
# CB1 [5] = biological target: T1, CB1; assay type: binding; settings: in the presence of ICAM-b
# T1 sequence (P21554 whole entry): as above
Compound,effect on [3H]SR141716A binding (CB1 [1]),solubility in common organic solvents [2],Kb (CB1 [3]),cooperativity factor (α) (CB1 [3]),"cooperativity factor (α) (CB1 [1]; [3H]SR141716A as tracer, membranes of HEK293 cells expressing CB1)","inhibition of CP55,940-induced [35S]GTPγS binding (CB1 wild-type receptor; 3.2 µM ICAM-b)","[35S]GTPγS binding level (CB1 wild-type receptor; 3.2 µM ICAM-b, basal level 50.1 fmol/mg)","Emax of CP55,940-induced [35S]GTPγS binding (CB1 wild-type receptor; in the presence of 0.32 µM ICAM-b)","Emax of CP55,940-induced [35S]GTPγS binding (CB1 wild-type receptor; in the presence of 1 µM ICAM-b)",time of maximal ERK1/2 phosphorylation (CB1 [4]; HEK293 cells expressing CB1),"transient ERK1/2 phosphorylation compared with CP55,940 alone (CB1 [4]; ICAM-b alone, control siRNA, HEK293 cells expressing CB1)",effect of β-arrestin 2 siRNA on patterns of ERK1/2 phosphorylation (CB1 [4]; compared to control siRNA transfection),"Bmax changes for CP55,940 and SR141716A (CB1 [5])","Emax of CP55,940-induced [35S]GTPγS binding (CB1 wild-type receptor; in the absence of ICAM-b)"
"CCc1c(C(=O)NCCc2ccc(N3CCCCC3)cc2)n(C)c2ccc(Cl)cc12 [ICAM-a, 5-chloro-3-ethyl-1-methyl-N-(4-(piperidin-1-yl)phenethyl)-1H-indole-2-carboxamide]",little effect; also recorded: no effect,poor,5.78 µM,11.9,–,–,–,–,–,–,–,–,–,–
"CCCCCc1c(C(=O)NCCc2ccc(N3CCCCC3)cc2)[nH]c2ccc(Cl)cc12 [ICAM-b, 5-chloro-3-pentyl-N-(4-(piperidin-1-yl)phenethyl)-1H-indole-2-carboxamide]",substantial decrease,poor,–,17.6,0.11,complete inhibition,42.1 fmol/mg,78.7 fmol/mg,59.3 fmol/mg,5 min,larger increase,did not alter,Negligible,–
"CCCCCCC(C)(C)c1ccc([C@@H]2C[C@H](O)CC[C@H]2CCCO)c(O)c1 [CP55,940, (1R,3R,4R)-3-[2-hydroxy-4-(1,1-dimethylheptyl)-phenyl]-4-(3-hydroxypropyl)cyclohexan-1-ol, reference compound]",–,–,–,–,–,–,–,–,–,5 min,–,–,–,98.9 fmol/mg
